# Source: patent US20060069132A1, “Azolecarboxamide herbicides” (priority 2004, published 2006)
# Tests used:
# [1] = system: barnyardgrass; assay: Test B pre-/postemergence herbicide test; type: in vivo, Echinochloa crus-galli; settings: 0 = no effect, 100 = complete control, preemergence
# Method in brief: (§1)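 Seeds were planted and treated preemergence with compounds formulated in a non-phytotoxic solvent mixture containing surfactant, while plants at the 1- to 4-leaf stage (2 to 18 cm) received postemergence sprays. Flooded paddy plants were grown to the 2-leaf stage. After 13 to 15 days in a greenhouse, injury was visually rated 0–100 against untreated controls.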
# [2] = system: barnyardgrass; assay: Test C flooded paddy test; type: in vivo, Echinochloa crus-galli
# Method in brief: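 Scoring by eye, 12–14 days post-treatment, greenhouse-held plants vs. controls; 0 no effect, 100 complete control. Sprayed at 1–4 leaves (2–18 cm); paddy barnyardgrass at 2 leaves, flooded.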
# [3] = system: wild oat; assay: Test B postemergence herbicide test; type: in vivo, Avena fatua; settings: postemergence, visual rating, scale 0 (no effect) to 100 (complete control)
# Method in brief: (§2)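 Scale 0–100: zero equals no visible effect, 100 complete control, judged by eye relative to controls. Timing: 13 to 15 days in greenhouse post-treatment. Growth stage at spraying: two leaves (paddy) or one to four leaves, 2–18 cm (postemergence).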
# [4] = system: Surinam grass; assay: Test B pre-/postemergence herbicide test; type: in vivo, Urochloa decumbens; settings: for Surinam Grass plant response rating: postemergence, scale 0 (no effect) to 100 (complete control)
# Method in brief: as §1
# [5] = system: velvetleaf; assay: Test B pre-/postemergence herbicide test; type: in vivo, Abutilon theophrasti; settings: for Velvetleaf plant response rating: postemergence, scale 0 (no effect) to 100 (complete control)
# Method in brief: as §1
# [6] = system: pigweed; assay: Test B pre-/postemergence herbicide test; type: in vivo, Amaranthus retroflexus; settings: for Pigweed plant response rating: postemergence, scale 0 (no effect) to 100 (complete control)
# Method in brief: as §1
# [7] = system: morningglory; assay: Test B pre-/postemergence herbicide test; type: in vivo, Ipomoea coccinea
# Method in brief: as §1
# [8] = system: rice; assay: Test B pre-/postemergence herbicide test; type: in vivo, Oryza sativa; settings: 0 = no effect, 100 = complete control, preemergence
# Method in brief: as §1
# [9] = system: blackgrass; assay: Test B postemergence herbicide test; type: in vivo, Alopecurus myosuroides; settings: postemergence, visual rating, scale 0 (no effect) to 100 (complete control)
# Method in brief: (§3)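 Postemergence plants were sprayed with formulated test chemicals at 2 to 18 cm height (1- to 4-leaf stage); paddy species were grown to the 2-leaf stage. After 13 to 15 days in a greenhouse, injury was rated visually against untreated controls on a 0–100 scale (0 = no effect, 100 = complete control).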
# [10] = system: smallflower umbrella sedge; assay: Test C flooded paddy test; type: in vivo, Cyperus difformis
# [11] = system: rice; assay: Test C flooded paddy test; type: in vivo, Oryza sativa
# Method in brief: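 Plants were grown to the 1- to 4-leaf stage (2–18 cm) and then treated postemergence, or grown to the 2-leaf stage for the flooded paddy test. They were held in a greenhouse for 12 to 14 days and then scored by eye against controls, where 0 is no effect and 100 is complete control.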
# [12] = system: ducksalad; assay: Test C flooded paddy test; type: in vivo, Heteranthera limosa
# [13] = system: corn; assay: Test B pre-/postemergence herbicide test; type: in vivo, Zea mays; settings: for Corn plant response rating: postemergence, scale 0 (no effect) to 100 (complete control)
# Method in brief: as §1
# [14] = system: large crabgrass; assay: Test B pre-/postemergence herbicide test; type: in vivo, Digitaria sanguinalis; settings: for Crabgrass, Large plant response rating: postemergence, scale 0 (no effect) to 100 (complete control)
# Method in brief: as §1
# [15] = system: small flower umbrella sedge; assay: Test B flooded paddy test; type: in vivo, Cyperus difformis; settings: 1000 g ai/ha, scale 0 to 100 (0 no effect, 100 complete control)
# Method in brief: as §3
# [16] = system: wheat; assay: Test B postemergence herbicide test; type: in vivo, Triticum aestivum; set-up: key to Wheat plant response rating: 0 = no effect, 100 = complete control; settings: postemergence, visual rating, scale 0 (no effect) to 100 (complete control)
# Method in brief: as §2
# [17] = system: cocklebur; assay: Test B pre-/postemergence herbicide test; type: in vivo, Xanthium strumarium; settings: for Cocklebur plant response rating: postemergence, scale 0 (no effect) to 100 (complete control)
# Method in brief: as §1
# [18] = system: rice; assay: Test B flooded paddy test; type: in vivo, Oryza sativa; settings: 1000 g ai/ha, scale 0 to 100 (0 no effect, 100 complete control)
# Method in brief: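 Visual ratings, 0 (no effect) to 100 (complete control), made versus controls after 13–15 d greenhouse. Paddy plants treated at 2-leaf stage; postemergence plants at 1- to 4-leaf stage, 2–18 cm tall.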
# [19] = system: barnyardgrass; assay: Test B flooded paddy test; type: in vivo, Echinochloa crus-galli; settings: 1000 g ai/ha, scale 0 to 100 (0 no effect, 100 complete control)
# Method in brief: as §3
# [20] = system: ducksalad; assay: Test B flooded paddy test; type: in vivo, Heteranthera limosa; settings: 1000 g ai/ha, scale 0 to 100 (0 no effect, 100 complete control)
# Method in brief: as §3
# [21] = system: lambsquarters; assay: Test B pre-/postemergence herbicide test; type: in vivo, Chenopodium album; settings: for Lambsquarters plant response rating: postemergence, scale 0 (no effect) to 100 (complete control)
# Method in brief: as §1
# [22] = system: giant foxtail; assay: Test B pre-/postemergence herbicide test; type: in vivo, Setaria faberi; settings: for Foxtail, Giant plant response rating: postemergence, scale 0 (no effect) to 100 (complete control)
# Method in brief: as §1
# [23] = 62 g ai/ha, scale 0 to 100 (0 no effect, 100 complete control)
# [24] = 125 g ai/ha, scale 0 to 100 (0 no effect, 100 complete control)
# [25] = 250 g ai/ha, scale of 0 to 100, 0 is no effect, 100 is complete control
# [26] = 500 g ai/ha, visual rating after 12 to 14 days, scale 0 to 100 (0 no effect, 100 complete control)
# [27] = 125 g ai/ha, 0 = no effect, 100 = complete control, preemergence
# [28] = 500 g ai/ha, visual rating, 0 = no effect, 100 = complete control, preemergence
compound,measurement,setting,value
CCc1cn(C(C)(C)C)nc1C(=O)Nc1cc(C(=O)N(C)CC)ccn1 [Compound 235],Barnyardgrass plant response rating (0 to 100 scale),[1]; 125 g ai/ha,10
same,"Plant response rating, Barnyardgrass","[1]; 500 g ai/ha, visual rating",50
same,Barnyardgrass plant response rating,[2]; [23],0
same,Barnyardgrass plant response rating,[2]; [24],0
same,Barnyardgrass plant response rating,[2]; [25],0
same,"Plant response rating, Barnyardgrass",[2]; [26],0
same,"Oat, Wild plant response rating",[3]; 125 g ai/ha,10
same,"Oat, Wild plant response rating",[3]; 500 g ai/ha,20
same,Surinam Grass plant response rating (0 to 100 scale),[4]; [27],10
same,"Plant response rating, Surinam Grass",[4]; [28],60
same,Surinam Grass plant response rating,"[4]; 125 g ai/ha, visual rating",10
same,Surinam Grass plant response rating,"[4]; 500 g ai/ha, visual rating",10
same,Velvetleaf plant response rating (0 to 100 scale),[5]; [27],10
same,"Plant response rating, Velvetleaf",[5]; [28],30
same,Velvetleaf plant response rating,"[5]; 125 g ai/ha, visual rating",20
same,Velvetleaf plant response rating,"[5]; 500 g ai/ha, visual rating",30
same,Pigweed plant response rating (0 to 100 scale),[6]; [27],30
same,"Plant response rating, Pigweed",[6]; [28],100
same,Pigweed plant response rating,"[6]; 125 g ai/ha, visual rating",30
same,Pigweed plant response rating,"[6]; 500 g ai/ha, visual rating",40
same,Morningglory plant response rating (0 to 100 scale),[7]; [27],10
same,"Plant response rating, Morningglory",[7]; [28],10
same,Morningglory plant response rating,"[7]; postemergence, 500 g ai/ha, visual rating, scale 0 (no effect) to 100 (complete control)",70
same,Rice plant response rating (0 to 100 scale),[8]; 125 g ai/ha,0
same,"Plant response rating, Rice","[8]; 500 g ai/ha, visual rating",20
same,Blackgrass plant response rating,[9]; 125 g ai/ha,0
same,Blackgrass plant response rating,[9]; 500 g ai/ha,20
same,"Sedge, Umbrella plant response rating",[10]; [23],0
same,"Sedge, Umbrella plant response rating",[10]; [24],50
same,"Sedge, Umbrella plant response rating",[10]; [25],55
same,"Plant response rating, Sedge, Umbrella",[10]; [26],80
same,Rice plant response rating,[11]; [23],0
same,Rice plant response rating,[11]; [24],0
same,Rice plant response rating,[11]; [25],25
same,"Plant response rating, Rice",[11]; [26],35
same,Ducksalad plant response rating,[12]; [23],0
same,Ducksalad plant response rating,[12]; [24],0
same,Ducksalad plant response rating,[12]; [25],0
same,"Plant response rating, Ducksalad",[12]; [26],75
same,Corn plant response rating (0 to 100 scale),[13]; [27],0
same,"Plant response rating, Corn",[13]; [28],20
same,Corn plant response rating,"[13]; 125 g ai/ha, visual rating",20
same,Corn plant response rating,"[13]; 500 g ai/ha, visual rating",40
same,"Crabgrass, Large plant response rating (0 to 100 scale)",[14]; [27],40
same,"Plant response rating, Crabgrass, Large",[14]; [28],90
same,"Crabgrass, Large plant response rating","[14]; 125 g ai/ha, visual rating",10
same,"Crabgrass, Large plant response rating","[14]; 500 g ai/ha, visual rating",20
same,"Sedge, Umbrella plant response rating",[15],80
same,Wheat plant response rating,[16]; 125 g ai/ha,0
same,Wheat plant response rating,[16]; 500 g ai/ha,20
same,Cocklebur plant response rating (0 to 100 scale),[17]; [27],0
same,"Plant response rating, Cocklebur",[17]; [28],0
same,Cocklebur plant response rating,"[17]; 125 g ai/ha, visual rating",0
same,Cocklebur plant response rating,"[17]; 500 g ai/ha, visual rating",30
same,Rice plant response rating,[18],40
same,Barnyardgrass plant response rating,[19],40
same,Ducksalad plant response rating,[20],90
same,Lambsquarters plant response rating (0 to 100 scale),[21]; [27],50
same,"Plant response rating, Lambsquarters",[21]; [28],90
same,Lambsquarters plant response rating,"[21]; 125 g ai/ha, visual rating",40
same,Lambsquarters plant response rating,"[21]; 500 g ai/ha, visual rating",50
same,"Foxtail, Giant plant response rating (0 to 100 scale)",[22]; [27],0
same,"Plant response rating, Foxtail, Giant",[22]; [28],50
same,"Foxtail, Giant plant response rating","[22]; 125 g ai/ha, visual rating",10
same,"Foxtail, Giant plant response rating","[22]; 500 g ai/ha, visual rating",30
